The numbers were not newly measured in publication PMC9120017, “Inhibition mechanism of the chloride channel TMEM16A by the pore blocker 1PBC” (Nature Communications, 2022), which cites them from elsewhere.

In this series the test system is TMEM16A. The conditions noted are these: cited from earlier work.

For the compound `O=C(O)c1c2ccccc2cc2ccccc12` [9-AC, 9-anthracene carboxylate], the “Inhibition of TMEM16A” value was “inhibit TMEM16A”.
Regarding `O=S(=O)(O)c1cc(N=C=S)ccc1C=Cc1ccc(N=C=S)cc1S(=O)(=O)O` [DIDS, 4,4′-Diisothiocyanato-2,2′-stilbenedisulfonic acid], the “Inhibition of TMEM16A” value is on record as “inhibit TMEM16A”.
`O=C(O)c1cccnc1Nc1cccc(C(F)(F)F)c1` [NFA]: the “Selectivity for anion channels of the TMEM16 family over the scramblase TMEM16F” value is listed as “selective for anion channels of the TMEM16 family over the scramblase TMEM16F”.
As to `O=C(O)c1cc([N+](=O)[O-])ccc1NCCCc1ccccc1` [NPPB], the “Selectivity for anion channels of the TMEM16 family over the scramblase TMEM16F” value is listed as “selective for anion channels of the TMEM16 family over the scramblase TMEM16F”.
`O=C(Nc1ccc([N+](=O)[O-])cc1Cl)c1cc(Cl)ccc1O` [niclosamide]: the “Inhibition of TMEM16A” value is on record as “inhibit TMEM16A”.
